Reference: PubChem BioAssay AID256 (DTP/NCI, 2004)
Several values for one entry are separate records, joined by “and”; a condition that tells them apart may be missing. Equal values may be shown once. Inconclusive results and toxic doses are left out.

Test system: CD2F1 mice, L1210 leukemia ip, survival T/C
Assay: NCI In Vivo Anticancer Drug Screen. Data for tumor model L1210 Leukemia (intraperitoneal) in CD2F1 (CDF1) mice
Settings: endpoint: mean survival time, higher = longer survival
How it was run: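 In this screen, transplantable tumors were grown in mice given either the compound or its vehicle. Results were expressed as the treated measurement relative to the control measurement.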

Q: What does the source list for `COc1cccc2c1C(=O)c1c(O)c3c(c(O)c1C2=O)C[C@@](O)(C(=O)CO)C[C@@H]3OC1CC(N)C(O)C(C)O1` (stereo partly drawn)?
A: T/C (dose: 0.06 mg/kg/injection, schedule: Q01DX009 (ip), vehicle: saline): 105 % of control; T/C (dose: 0.12 mg/kg/injection, schedule: Q01DX009 (ip), vehicle: saline): 114 % of control; T/C (dose: 0.2 mg/kg/injection, schedule: Q01DX009 (ip), vehicle: water): 113 % of control and 114 % of control; T/C (dose: 0.25 mg/kg/injection, schedule: Q01DX005 (ip), vehicle: water): 121 % of control; T/C (dose: 0.38 mg/kg/injection, schedule: Q01DX009 (ip), vehicle: saline): 121 % of control; T/C (dose: 0.39 mg/kg/injection, schedule: Q01DX009 (ip), vehicle: water): 117 % of control; T/C (dose: 0.43 mg/kg/injection, schedule: Q01DX009 (ip), vehicle: saline): 120 % of control; T/C (dose: 0.62 mg/kg/injection, schedule: Q04DX003 (ip), vehicle: water): 120 % of control; T/C (dose: 0.63 mg/kg/injection, schedule: Q04DX003 (ip), vehicle: water): 123 % of control; T/C (dose: 0.72 mg/kg/injection, schedule: Q01DX009 (ip), vehicle: saline): 173 % of control; T/C (dose: 1.0 mg/kg/injection, schedule: Q01DX001 (ip), vehicle: water): 101 % of control; T/C (dose: 1.0 mg/kg/injection, schedule: Q01DX005 (ip), vehicle: water): 174 % of control; T/C (dose: 1.08 mg/kg/injection, schedule: Q04DX003 (ip), vehicle: saline): 124 % of control; T/C (dose: 1.2 mg/kg/injection, schedule: Q01DX009 (ip), vehicle: saline): 204 % of control; T/C (dose: 1.68 mg/kg/injection, schedule: Q01DX001 (ip), vehicle: water): 159 % of control; T/C (dose: 1.68 mg/kg/injection, schedule: Q01DX009 (ip), vehicle: water): 160 % of control; T/C (dose: 1.7 mg/kg/injection, schedule: Q01DX001 (ip), vehicle: water): 99 % of control; T/C (dose: 1.8 mg/kg/injection, schedule: Q04DX003 (ip), vehicle: saline): 121 % of control; T/C (dose: 2.0 mg/kg/injection, schedule: Q01DX001 (ip), vehicle: saline): 102 % of control; T/C (dose: 2.5 mg/kg/injection, schedule: Q04DX003 (ip), vehicle: water): 187 % of control; T/C (dose: 2.8 mg/kg/injection, schedule: Q01DX001 (ip), vehicle: water): 155 % of control; T/C (dose: 2.8 mg/kg/injection, schedule: Q01DX009 (ip), vehicle: water): 153 % of control; T/C (dose: 2.9 mg/kg/injection, schedule: Q01DX001 (ip), vehicle: water): 98 % of control; T/C (dose: 3.0 mg/kg/injection, schedule: Q01DX009 (ip), vehicle: saline): 114 % of control and 101 % of control; T/C (dose: 3.13 mg/kg/injection, schedule: Q01DX009 (ip), vehicle: water): 101 % of control; T/C (dose: 4.0 mg/kg/injection, schedule: Q01DX001 (ip), vehicle: saline): 193 % of control; T/C (dose: 4.67 mg/kg/injection, schedule: Q01DX001 (ip), vehicle: water): 166 % of control; T/C (dose: 4.67 mg/kg/injection, schedule: Q01DX009 (ip), vehicle: water): 100 % of control; T/C (dose: 4.8 mg/kg/injection, schedule: Q01DX001 (ip), vehicle: water): 102 % of control; T/C (dose: 5.0 mg/kg/injection, schedule: Q01DX001 (ip), vehicle: saline): 150 % of control and 171 % of control; T/C (dose: 5.0 mg/kg/injection, schedule: Q01DX001 (ip), vehicle: water): 151 % of control and 178 % of control; T/C (dose: 5.0 mg/kg/injection, schedule: Q04DX003 (ip), vehicle: water): 166 % of control; T/C (dose: 5.4 mg/kg/injection, schedule: Q01DX001 (ip), vehicle: saline): 151 % of control and 260 % of control; T/C (dose: 6.6 mg/kg/injection, schedule: Q01DX001 (ip), vehicle: saline): 193 % of control; T/C (dose: 7.78 mg/kg/injection, schedule: Q01DX001 (ip), vehicle: water): 153 % of control; T/C (dose: 8.0 mg/kg/injection, schedule: Q01DX001 (ip), vehicle: saline): 208 % of control; T/C (dose: 8.0 mg/kg/injection, schedule: Q01DX001 (ip), vehicle: water): 98 % of control; T/C (dose: 8.0 mg/kg/injection, schedule: Q04DX003 (ip), vehicle: saline): 163 % of control
